As a reminder, the GI50 is the concentration that inhibits growth by half. Read a low GI50 as more potent growth inhibition. A word on the IC50: it is the concentration that inhibits the measured activity by half. What is called EC50 is the midpoint of the concentration-response curve.

Experiment [1] relates to DU-145. The experiment can be described thus: cells. The following applies: Homo sapiens, DU-145, 48 h.
The subject of experiment [2] is CCRF-CEM. The experiment can be described thus: cells. The format is cell-based. The settings on record: Homo sapiens, NCI-60, 48 h.
The subject of experiment [3] is SK-MEL-5. The experiment can be described thus: cells. The following applies: Homo sapiens, SK-MEL-5, 48 h.
In experiment [4] the test system is IGROV1. The experiment can be described thus: cells. The format is cell-based. The following applies: Homo sapiens, IGROV-1, NCI-60, 48 h.
The subject of experiment [5] is RXF 393. The experiment can be described thus: cells. The settings on record: Homo sapiens, RXF 393, 48 h.
Experiment [6] relates to SK-MEL-2. Briefly: cells. The following applies: Homo sapiens, SK-MEL-2, 48 h.
Experiment [7] relates to SW1353. The experiment can be described thus: Eurofins OncoPanel (CellTiter-Glo). The format is cell-based. The settings on record: Homo sapiens, 72 h, 3 days. Background: ATP-based viability assays read luminescence as a measure of living cells.
The test system of experiment [8] is H9. Briefly: Eurofins OncoPanel (CellTiter-Glo). The settings on record: Homo sapiens, 72 h, 3 days. The format is cell-based.
Experiment [9] concerns RPMI-8226. The experiment can be described thus: cells. The format is cell-based. The following applies: Homo sapiens, NCI-60, 48 h.
The subject of experiment [10] is HL-60(TB). Briefly: cells. The following applies: Homo sapiens, HL-60, 48 h.
Experiment [11] deals with MDA MB 436. Briefly: Eurofins OncoPanel (CellTiter-Glo). The format is cell-based. The following applies: Homo sapiens, 72 h, 3 days.
The test system of experiment [12] is K-562. The experiment can be described thus: cells. The format is cell-based. The settings on record: Homo sapiens, K562, NCI-60, 48 h.
For experiment [13], the system named is MOLT-4. The experiment can be described thus: cells. It is filed as cell-based. The settings on record: Homo sapiens, NCI-60, 48 h.
Experiment [14] relates to NL4-3 Rluc HIV. Briefly: microbe, parasite or virus in culture. It is filed as cell-based. The settings on record: Human immunodeficiency virus 1, NL43, MT2, 96 h, read-out: EC50 against HIV.
For experiment [15], the system named is MHH-PREB-1. Briefly: Eurofins OncoPanel (CellTiter-Glo). The following applies: Homo sapiens, MHH-PREB-1, 72 h.
Experiment [16] relates to HCC-2998. Briefly: cells. The following applies: Homo sapiens, HCC 2998, 48 h.
Experiment [17] concerns SF-295. The experiment can be described thus: cells. The settings on record: Homo sapiens, SF-295, 48 h.
The subject of experiment [18] is HOP-62. The experiment can be described thus: cells. The format is cell-based. The settings on record: Homo sapiens, NCI-60, 48 h.
Experiment [19] has as its system PANC-1. Briefly: In-house cancer cell viability screen (AlamarBlue). It is filed as cell-based. The following applies: Homo sapiens, 72 h.

With `CC(C)CCNc1ncnc2cc(N3CCN(c4ccc5c(NCCC(C)C)ncnc5c4)CC3)ccc12` [PAV-951], the GI50 in experiment [1] is 0.283 µM; in experiment [2], 0.198 µM; in experiment [3] it was 1.87 µM; in experiment [4], 0.287 µM; in experiment [5], 0.448 µM; in [6] it was 1.65 µM. The GI50 came out at 0.213 µM in [9]; 0.269 µM in [10]; 0.131 µM in [12]; 0.223 µM in experiment [13]; 0.967 µM in [16]; 1.64 µM in experiment [17]. Further, the GI50 in experiment [18] was determined as 0.358 µM. Also, the CC50 turned out to be 2.83 µM in experiment [1] (read-out: LC50); 9.12 µM in [3] (read-out: LC50); 5.91 µM in experiment [6] (read-out: LC50); 5.13 µM in [16] (read-out: LC50); 5.59 µM in experiment [17] (read-out: LC50). The IC50 in experiment [7] is 2.21 µM; in [8] it was 0.165 µM; in [11], 1.46 µM; in experiment [15] it was 0.4 µM; in experiment [19], 0.244 µM. Also, in experiment [14], the EC50 came to 0.66 µM.

The values above are taken from article PMC11651915, “Small molecule protein assembly modulators with pan-cancer therapeutic efficacy” (Open Biology, 2024).
